Test results: US9920038B2, “Methyl oxazole orexin receptor antagonists” (MERCK SHARP & DOHME CORP., priority 2014, dated 2018)
Where two headings read alike, the source gives them in different places.

Columns and labels:
[1] = target: hOX1R (Homo sapiens, UniProt O43613); test: hOX1R FLIPR Ca2+ flux assay; format: cell-based
[2] = target: human orexin-2 receptor (Homo sapiens (Human), UniProt O43614); test: hOX2R FLIPR Ca2+ flux assay; format: cell-based; settings: CHO cells expressing human orexin-2 receptor; agonist 70 pM Ala-6,12 orexin-A
Method: In a typical experiment the OX1 and OX2 receptor antagonistic activity of the compounds of the present invention was determined in accordance with the following experimental method. For intracellular calcium measurements, Chinese hamster ovary (CHO) cells expressing the rat orexin-1 receptor or the human orexin-2 receptor, are grown in Iscove's modified DMEM containing 2 mM L-glutamine, […], 1% hypoxanthine-thymidine supplement, 100 U/ml penicillin, 100 μg/ml streptomycin and 10% heat-inactivated fetal calf serum (FCS). The cells are seeded at 20,000 cells/well into Becton-Dickinson black 384-well clear bottom sterile plates coated with poly-D-lysine. All reagents were from GIBCO-Invitrogen Corp. The seeded plates are incubated overnight at 37° C. and 5% CO2. Ala-6,12 human orexin-A as the agonist is prepared as a 1 mM stock solution in 1% bovine serum albumin (BSA) and diluted in assay buffer (HBSS containing 20 mM HEPES, 0.1% BSA and 2.5 mM probenecid, pH7.4) for use in the assay at a final concentration of 70 pM. Test compounds are prepared as 10 mM stock solution in DMSO, then diluted in 384-well plates, first in DMSO, then assay buffer. On the day of the assay, cells are washed 3 times with 100 μl assay buffer and then incubated for 60 min (37° C., 5% CO2) in 60 μl assay buffer containing […] Fluo-4AM ester, 0.02% pluronic acid, and 1% BSA. The dye loading solution is then aspirated and cells are washed 3 times with 100 μl assay buffer. 30 μl of that same buffer is left in each well. Within the Fluorescent Imaging Plate Reader (FLIPR, Molecular Devices), test compounds are added to the plate in a volume of 25 μl, incubated for 5 min and finally 25 μl of agonist is added. Fluorescence is measured for each well at 1 second intervals for 5 minutes and the height of each fluorescence peak is compared to the height of the fluorescence peak induced by 70 pM Ala-6,12 orexin-A with buffer in place of antagonist. For each antagonist, IC50 value (the concentration of compound needed to inhibit 50% of the agonist response) is determined. Alternatively, compound potency can be assessed by a radioligand binding assay (described in Bergman et. al. Bioorg. Med. Chem. Lett. 2008, 18, 1425-1430) in which the inhibition constant (Ki) is determined in membranes prepared from CHO cells expressing either the OX1 or OX2 receptor. The intrinsic orexin receptor antagonist activity of a compound which may be used in the present invention may be determined by these assays.

[3] = CHO cells expressing orexin-1 receptor, agonist 70 pM Ala-6,12 orexin-A, read-out: hOX1R FLIPR IC50

human orexin-2 receptor, sequence (O43614 whole entry): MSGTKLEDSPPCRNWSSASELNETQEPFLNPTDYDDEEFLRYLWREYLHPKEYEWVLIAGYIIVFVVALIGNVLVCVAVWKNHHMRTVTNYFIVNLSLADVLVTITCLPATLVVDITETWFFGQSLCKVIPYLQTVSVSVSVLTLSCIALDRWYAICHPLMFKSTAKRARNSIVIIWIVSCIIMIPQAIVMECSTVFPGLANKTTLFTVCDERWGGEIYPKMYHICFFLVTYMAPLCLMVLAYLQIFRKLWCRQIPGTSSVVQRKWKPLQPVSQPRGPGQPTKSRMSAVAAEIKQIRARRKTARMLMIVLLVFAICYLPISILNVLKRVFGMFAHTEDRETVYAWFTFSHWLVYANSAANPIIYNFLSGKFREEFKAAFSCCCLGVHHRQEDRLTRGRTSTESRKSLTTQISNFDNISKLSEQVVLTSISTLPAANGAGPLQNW

Structure (SMILES) | IC50 [1, 3] [nM] | IC50 [2] [nM] | IC50 [1] [nM]
Cc1oc(C[C@H]2CCCCN2C(=O)c2ccccc2OC(F)(F)F)nc1C(C)(C)O [Example 9, (R)-(2-((4-(2-hydroxypropan-2-yl)-5-methyloxazol-2-yl)methyl)piperidin-1-yl)(2-(trifluoromethoxy)phenyl) methanone] | 348 | 109 | 
Cc1oc(C[C@H]2CCCCN2C(=O)c2ccccc2C2CC2)nc1C(C)(C)O [Example 3, (R)-(2-cyclopropylphenyl)(2-((4-(2-hydroxypropan-2-yl)-5-methyloxazol-2-yl)methyl)piperidin-1-yl)methanone] |  | 17 | 212
Cc1oc(C[C@H]2CCCCN2C(=O)c2ccccc2-n2nccn2)nc1C(C)(C)O [Example 1, (R)-(2-(2H-1,2,3-triazol-2-yl)phenyl)(2-((4-(2-hydroxypropan-2-yl)-5-methyloxazol-2-yl)methyl)piperidin-1-yl)methanone] | 18 | 14 | 
Cc1oc(C[C@H]2CCCCN2C(=O)c2cccnc2OCC(F)(F)F)nc1C(C)(C)O [Example 5, (R)-(2-((4-(2-hydroxypropan-2-yl)-5-methyloxazol-2-yl)methyl)piperidin-1-yl)(2-(2,2,2-trifluoroethoxy)pyridin-3-yl)methanone] | 162 | 19 | 
Cc1oc(C[C@H]2CCCCN2C(=O)c2ccccc2CC(F)(F)F)nc1C(C)(C)O [Example 18, (R)-(2-((4-(2-hydroxypropan-2-yl)-5-methyloxazol-2-yl)methyl)piperidin-1-yl)(2-(2,2,2-trifluoroethyl)phenyl)-methanone] | 1690 | 118 | 
Cc1oc(C[C@H]2CCCCN2C(=O)c2cccnc2-n2cccn2)nc1C(C)(C)O [Example 13, (R)-(2-(1H-pyrazol-1-yl)pyridin-3-yl)(2-((4-(2-hydroxypropan-2-yl)-5-methyloxazol-2-yl)methyl)piperidin-1-yl)methanone] | 51 | 24 | 
Cc1ccc(-n2nccn2)c(C(=O)N2CCCC[C@@H]2Cc2nc(C(C)(C)O)c(C)o2)c1 [Example 30, (R)-(2-((4-(2-hydroxypropan-2-yl)-5-methyloxazol-2-yl)methyl)piperidin-1-yl)(5-methyl-2-(2H-1,2,3-triazol-2-yl)phenyl)methanone] | 50 | 46 | 
CCOc1ncccc1C(=O)N1CCCC[C@@H]1Cc1nc(C(C)(C)O)c(C)o1 [Example 2, (R)-(2-ethoxypyridin-3-yl)(2-((4-(2-hydroxypropan-2-yl)-5-methyloxazol-2-yl)methyl)piperidin-1-yl)methanone] | 152 | 20 | 
